# ChEMBL document CHEMBL4184088, “Synthesis and biological evaluation of novel doxorubicin-containing ASGP-R-targeted drug-conjugates” (Bioorg Med Chem Lett, 2018)
# Calls of active or inactive are those of the source. No cut-off for these calls is given here.
# Key:
# HepG2 [1] = assay: Cytotoxicity against human HepG2 cells assessed as reduction in cell viability at 100 umol after 48 hrs by MTS assay relative to control; type: functional
# [2] = Drug uptake in human HepG2 cells assessed as doxorubicin conjugates accumulation at 10 uM after 6 hrs by fluorescence assay; type: ADME, cell-based; conditions: hepg2, 6 h
# [3] = Drug uptake in human HEK293 cells assessed as assessed as doxorubicin conjugates accumulation at 10 uM after 6 hrs by fluorescence assay; type: ADME, cell-based; conditions: hek293, 6 h
# [4] = Drug localization in human HepG2 cell cytoplasm at assessed as doxorubicin conjugates accumulation 10 uM after 24 hrs by DAPI staining-based fluorescence microscopic analysis; type: ADME; conditions: hepg2, 24 h
# HepG2 [5] = assay: Cytotoxicity against human HepG2 cells assessed as cell viability up to 70 uM after 2 hrs by MTS assay; type: functional, cell-based
# [6] = Drug localization in human HepG2 cell nucleus assessed as doxorubicin conjugates accumulation at 10 uM after 24 hrs by DAPI staining-based fluorescence microscopic analysis; type: ADME; conditions: hepg2, 24 h
# HepG2 [7] = assay: Cytostatic activity against human HepG2 cells assessed as cell viability at 0.02 to 70 uM after 48 hrs by MTS assay; type: functional, cell-based
# [8] = Drug uptake in human HEK293 cells assessed as doxorubicin conjugates accumulation at 10 uM after 24 hrs by fluorescence assay; type: ADME, cell-based; conditions: hek293, 24 h
Drug uptake [2],Drug uptake [3],Drug uptake [4],Drug uptake [6],Drug uptake [8],Compound,Activity (HepG2 [1]),Activity (HepG2 [5]),Activity (HepG2 [7])
Active,Active,Active,,,COc1cccc2c1C(=O)c1c(O)c3c(c(O)c1C2=O)C[C@@](O)(C(=O)CO)C[C@@H]3O[C@H]1C[C@H](NC(=O)CCCc2cn(CCO[C@@H]3O[C@H](CO)[C@H](O)[C@H](O)[C@H]3NC(C)=O)nn2)[C@H](O)[C@H](C)O1,20 - 30%,inactive,
Not Active,,,Not Active,,COc1cccc2c1C(=O)c1c(O)c3c(c(O)c1C2=O)C[C@@](O)(C(=O)CO)C[C@@H]3O[C@H]1C[C@H](N)[C@H](O)[C@H](C)O1.Cl [DOXORUBICIN HYDROCHLORIDE],,inactive,Active
Active,Active,Active,,Active,COc1cccc2c1C(=O)c1c(O)c3c(c(O)c1C2=O)C[C@@](O)(C(=O)CO)C[C@@H]3O[C@H]1C[C@H](NC(=O)CCCc2cn([C@@H]3O[C@H](CO)[C@H](O)[C@H](O)[C@H]3NC(C)=O)nn2)[C@H](O)[C@H](C)O1,20 - 30%,inactive,
Active,Active,Active,,,C=CCO[C@@H]1O[C@H](Cn2cc(CCCC(=O)N[C@H]3C[C@H](O[C@H]4C[C@](O)(C(=O)CO)Cc5c(O)c6c(c(O)c54)C(=O)c4c(OC)cccc4C6=O)O[C@@H](C)[C@H]3O)nn2)[C@H](O)[C@H](O)[C@H]1NC(C)=O,20 - 30%,inactive,
